According to article PMC8877061, “Antifungal and Antibiofilm Activity of Cyclic Temporin L Peptide Analogues against Albicans and Non-Albicans Candida Species” (Pharmaceutics, 2022):
Like-named read-outs stand apart in the source and are kept apart here. Positions of bridges follow the written chain, without caps; N, C: chain ends. Non-standard residues stand in square brackets, D forms with d. Residues, ends and D or L forms follow the SMILES beside them. Triazole bridges read from a SMILES are 1,4-linked. dLys(N3) = [N-]=[N+]=NCCCC[C@@H](N)C(=O)O; Lys(N3) = [N-]=[N+]=NCCCC[C@H](N)C(=O)O; S5 = C=CCCC[C@](C)(N)C(=O)O; dPra = C#CC[C@@H](N)C(=O)O; Pra = C#CC[C@H](N)C(=O)O

What was measured:
[1] = system: C. parapsilosis DSM 5784; format: cell-based
[2] = system: C. albicans ATCC 90028; format: cell-based
Method: C. albicans ATCC 90028, C. auris DSM 21092, C. glabrata DSM 11226, C. tropicalis DSM11951 and C. parapsilosis DSM 4874 grown on YPD Agar (1% w/v yeast extract, 2% w/v peptone, 2% w/v glucose, 1.5% Agar) were cultured in Tryptone soya broth supplemented with 0.1% glucose for 16–18 h at 37 °C, washed twice using sterile phosphate-buffered saline (PBS) and standardized to […] as required for the experiments. RPMI1640 medium (Thermo Fisher Scientific, Waltham, MA, USA) buffered to a pH of 7.0 with 0.165 M MOPS was used for growing the biofilms of all Candida species.
The antifungal activity of peptides against all five Candida species was determined according to CLSI-M27-A3 [33], as reported previously. Briefly, the compounds were tested at concentrations ranging from […] to 50 μM, and the organism suspensions were adjusted to an inoculum of 10^6 cell/mL at OD 590 nm in RPMI 1640, added to the 96-well plate and incubated at 37 °C for 24 h. The minimum inhibitory concentration (MIC) values were determined as the lowest concentration inhibiting fungal growth at 590 nm using a microplate reader (Synergy™ H4; BioTek Instruments, Inc., Winooski, VT, USA). […] The MFC was the lowest concentration that yielded no colony growth on the agar. The MFC/MIC ratio was calculated to determine whether the substance had fungistatic (MFC/MIC ≥ 4) or fungicidal (MFC/MIC < 4) activity.

[3] = CLSI-M27-A3, RPMI 1640, 10^6 cell/mL, 37 °C, 24 h, read at 590 nm, tested 6.5 to 50 μM

MIC, C. parapsilosis DSM 5784 ([1]; DSM 5784, 24 h) | MIC, C. albicans ATCC 90028 ([2]; ATCC 90028, 24 h) | SMILES | MIC, C. parapsilosis DSM 5784 [1, 3] | MIC, C. albicans ATCC 90028 [2, 3]
>50 µM | >50 µM | CC[C@H](C)[C@@H]1NC(=O)[C@H](CCCNC(=N)N)NC(=O)CNC(=O)[C@H](NC(=O)[C@H](Cc2ccccc2)NC(=O)[C@H](CCCCN)NC(=O)[C@H](CO)NC(=O)[C@H](Cc2ccccc2)NC(=O)[C@H](Cc2c[nH]c3ccccc23)NC(=O)[C@@H]2CCCN2C(=O)[C@@H](NC(=O)[C@@H](N)Cc2ccccc2)C(C)C)Cc2cn(nn2)CCCC[C@@H](C(N)=O)NC1=O [compound 6] (H-FVPWFSKF[dPra]GRI[Lys(N3)]-NH2; triazole 9-13; N-terminus assumed) |  | 
>50 µM | >50 µM | CC[C@H](C)[C@H](NC(=O)[C@H](CCCNC(=N)N)NC(=O)[C@@H]1CCCCn2cc(nn2)C[C@H](NC(=O)[C@H](Cc2ccccc2)NC(=O)[C@H](Cc2c[nH]c3ccccc23)NC(=O)[C@@H]2CCCN2C(=O)[C@@H](NC(=O)[C@@H](N)Cc2ccccc2)C(C)C)C(=O)N[C@@H](CCCCN)C(=O)N[C@@H](Cc2ccccc2)C(=O)N[C@H](CC(C)C)C(=O)N1)C(=O)N[C@@H](CC(C)C)C(N)=O [compound 8] (H-FVPWF[Pra]KF[dL][Lys(N3)]RIL-NH2; triazole 6-10; N-terminus assumed) |  | 
>50 µM | >50 µM | CC(C)C[C@H](NC(=O)[C@@H]1CCC(=O)NCCCC[C@H](NC(=O)[C@H](Cc2c[nH]c3ccccc23)NC(=O)[C@@H]2CCCN2C(=O)[C@@H](NC(=O)[C@@H](N)Cc2ccccc2)C(C)C)C(=O)N[C@@H](CO)C(=O)N[C@@H](CCCCN)C(=O)N[C@@H](Cc2ccccc2)C(=O)N[C@H](CC(C)C)C(=O)NCC(=O)N[C@@H](CCCNC(=N)N)C(=O)N1)C(N)=O [compound 12] (H-FVPWKSKF[dL]GREL-NH2; lactam 5-12; N-terminus assumed) |  | 
>50 µM | >50 µM | CC[C@H](C)[C@@H]1NC(=O)[C@H](CCCNC(=N)N)NC(=O)CNC(=O)[C@@H](CC(C)C)NC(=O)[C@H](Cc2ccccc2)NC(=O)[C@H](CCCCN)NC(=O)[C@@H](NC(=O)[C@H](Cc2ccccc2)NC(=O)[C@H](Cc2c[nH]c3ccccc23)NC(=O)[C@@H]2CCCN2C(=O)[C@@H](NC(=O)[C@@H](N)Cc2ccccc2)C(C)C)Cc2cn(nn2)CCCC[C@@H](C(N)=O)NC1=O [compound 13] (H-FVPWF[Pra]KF[dL]GRI[Lys(N3)]-NH2; triazole 6-13; N-terminus assumed) |  | 
>50 µM | >50 µM | CC(C)C[C@H](NC(=O)[C@@H]1CCCCn2cc(nn2)C[C@H](NC(=O)[C@H](Cc2c[nH]c3ccccc23)NC(=O)[C@@H]2CCCN2C(=O)[C@@H](NC(=O)[C@@H](N)Cc2ccccc2)C(C)C)C(=O)N[C@@H](CO)C(=O)N[C@@H](CCCCN)C(=O)N[C@@H](Cc2ccccc2)C(=O)N[C@H](CC(C)C)C(=O)NCC(=O)N[C@@H](CCCNC(=N)N)C(=O)N1)C(N)=O [compound 14] (H-FVPW[Pra]SKF[dL]GR[Lys(N3)]L-NH2; triazole 5-12; N-terminus assumed) |  | 

Second part, the molecule before the results:

SMILES | MIC, C. parapsilosis DSM 5784 ([1]; DSM 5784, 24 h) | MIC, C. albicans ATCC 90028 ([2]; ATCC 90028, 24 h) | MIC, C. parapsilosis DSM 5784 [1, 3] | MIC, C. albicans ATCC 90028 [2, 3]
CC[C@H](C)[C@@H]1NC(=O)[C@H](CCCNC(=N)N)NC(=O)CNC(=O)[C@H](NC(=O)[C@H](Cc2ccccc2)NC(=O)[C@H](CCCCN)NC(=O)[C@H](CO)NC(=O)[C@H](Cc2ccccc2)NC(=O)[C@H](Cc2c[nH]c3ccccc23)NC(=O)[C@@H]2CCCN2C(=O)[C@@H](NC(=O)[C@@H](N)Cc2ccccc2)C(C)C)CCCCNC(=O)CC[C@@H](C(N)=O)NC1=O [compound 1] (H-FVPWFSKF[dK]GRIE-NH2; lactam 9-13; N-terminus assumed) |  |  | >50 µM | >50 µM
CC(C)C[C@H](NC(=O)[C@@H]1CCC(=O)NCCCC[C@H](NC(=O)[C@H](CCCCN)NC(=O)[C@H](CO)NC(=O)[C@H](Cc2ccccc2)NC(=O)[C@H](Cc2c[nH]c3ccccc23)NC(=O)[C@@H]2CCCN2C(=O)[C@@H](NC(=O)[C@@H](N)Cc2ccccc2)C(C)C)C(=O)N[C@H](CC(C)C)C(=O)NCC(=O)N[C@@H](CCCNC(=N)N)C(=O)N1)C(N)=O [compound 2] (H-FVPWFSKK[dL]GREL-NH2; lactam 8-12; N-terminus assumed) | >50 µM | >50 µM |  | 
CC[C@H](C)[C@H](NC(=O)[C@H](CCCNC(=N)N)NC(=O)CNC(=O)[C@H]1CCC(=O)NCCCC[C@H](NC(=O)[C@H](Cc2c[nH]c3ccccc23)NC(=O)[C@@H]2CCCN2C(=O)[C@@H](NC(=O)[C@@H](N)Cc2ccccc2)C(C)C)C(=O)N[C@@H](CO)C(=O)N[C@@H](CCCCN)C(=O)N[C@@H](Cc2ccccc2)C(=O)N1)C(=O)N[C@@H](CC(C)C)C(N)=O [compound 4] (H-FVPWKSKF[dE]GRIL-NH2; lactam 5-9; N-terminus assumed) | >50 µM | >50 µM |  | 
CC[C@H](C)[C@H](NC(=O)[C@H](CCCNC(=N)N)NC(=O)CNC(=O)[C@@H](CC(C)C)NC(=O)[C@@H]1CCC(=O)NCCCC[C@H](NC(=O)[C@@H]2CCCN2C(=O)[C@@H](NC(=O)[C@@H](N)Cc2ccccc2)C(C)C)C(=O)N[C@@H](Cc2ccccc2)C(=O)N[C@@H](CO)C(=O)N[C@@H](CCCCN)C(=O)N1)C(=O)N[C@@H](CC(C)C)C(N)=O [compound 5] (H-FVPKFSKE[dL]GRIL-NH2; lactam 4-8; N-terminus assumed) | >50 µM | >50 µM |  | 
CC[C@H](C)[C@H](NC(=O)[C@H](CCCNC(=N)N)NC(=O)CNC(=O)[C@H]1CCCCn2cc(nn2)C[C@H](NC(=O)[C@H](Cc2c[nH]c3ccccc23)NC(=O)[C@@H]2CCCN2C(=O)[C@@H](NC(=O)[C@@H](N)Cc2ccccc2)C(C)C)C(=O)N[C@@H](CO)C(=O)N[C@@H](CCCCN)C(=O)N[C@@H](Cc2ccccc2)C(=O)N1)C(=O)N[C@@H](CC(C)C)C(N)=O [compound 9] (H-FVPW[Pra]SKF[dLys(N3)]GRIL-NH2; triazole 5-9; N-terminus assumed) | >50 µM | >50 µM |  | 
CC[C@H](C)[C@H](NC(=O)[C@H](CCCNC(=N)N)NC(=O)CNC(=O)[C@@H](CC(C)C)NC(=O)[C@@H]1CCCCn2cc(nn2)C[C@H](NC(=O)[C@@H]2CCCN2C(=O)[C@@H](NC(=O)[C@@H](N)Cc2ccccc2)C(C)C)C(=O)N[C@@H](Cc2ccccc2)C(=O)N[C@@H](CO)C(=O)N[C@@H](CCCCN)C(=O)N1)C(=O)N[C@@H](CC(C)C)C(N)=O [compound 10] (H-FVP[Pra]FSK[Lys(N3)][dL]GRIL-NH2; triazole 4-8; N-terminus assumed) | >50 µM | >50 µM |  | 
CC[C@H](C)[C@H](NC(=O)[C@H](CCCNC(=N)N)NC(=O)[C@]1(C)CCCC=CCCC[C@](C)(NC(=O)[C@H](Cc2ccccc2)NC(=O)[C@H](Cc2c[nH]c3ccccc23)NC(=O)[C@@H]2CCCN2C(=O)[C@@H](NC(=O)[C@@H](N)Cc2ccccc2)C(C)C)C(=O)N[C@@H](CCCCN)C(=O)N[C@@H](Cc2ccccc2)C(=O)N[C@H](CC(C)C)C(=O)N1)C(=O)N[C@@H](CC(C)C)C(N)=O [compound 17] (H-FVPWF[S5]KF[dL][S5]RIL-NH2; staple 6-10; N-terminus assumed) | >50 µM | >50 µM |  | 
